In brackets after ≈: the same amount, converted by molar mass. Read-outs that look alike come from different tables or passages of the source. Marks after values point to notes of the source that are not given here.
How the values were obtained:
Assay type in all cases: cell-based
[1] = system: methicillin-resistant Staphylococcus aureus MRSA 310; assay: Antimicrobial assay, MRSA (PrestoBlue fluorescence); conditions: for MRSA MIC90 / IC50 / MIC90: 22 h; for IC50 / MIC90: Staphylococcus aureus, MRSA; for IC50: read-out: MRSA IC50; for MIC90: read-out: MRSA MIC90
Procedure: (§1) The microorganisms (methicillin-resistant S. aureus MRSA 310, vancomycin-resistant E. faecium VRE 379, S. warneri (ATCC 17917), P. vulgaris (ATCC 12454), P. aeruginosa (ATCC 14210), and C. albicans (ATCC 14035)) were grown overnight on agar media. The following day the cultures were transferred into 0.9% saline water into a sterile glass tube. Using the McFarland reader, the turbidity was determined and further diluted into their respective media. The pure compounds were tested at seven different concentrations ranging from 2 to 128 μg mL^−1 in triplicate. Samples were plated into 96 well plates (10 μL in 20% DMSO) and then diluted pathogen (90 μL) was pipetted into the pre-prepared sample plates yielding 5 × 10^5 cfu mL^−1 with a final volume of 100 μL. Antibiotics that are active against specific pathogens were used as positive controls. The plates were incubated into a 37 °C incubator for 22 h. Growth of S. warneri. P. vulgaris, P. aeruginosa and C. albicans were measured by reading optical density (OD600), or in the case of slow growing microorganisms (MRSA and VRE), PrestoBlue was used to assess metabolic activity by measuring fluorescence (535–560)/(590–615) (excitation/emission) using a Thermo Scientific Varioskan Flash plate reader at time zero and then again after incubation of the plates for 22 h at 37 °C. After subtracting the time zero OD600 from the final reading, the percentages of microorganism survival relative to vehicle control wells were calculated. […]
(§2) Antimicrobial Assay Data Growth of S. warneri. P. vulgaris, P. aeruginosa and C. albicans were measured by reading optical density (OD600), or in the case of slow growing microorganisms (MRSA and VRE), PrestoBlue was used to assess metabolic activity by measuring fluorescence (535-560)⁄(590-615) (excitation/emission) using a Thermo Scientific Varioskan Flash plate reader at time zero and then again after incubation of the plates for 22 h at 37 °C. After subtracting the time zero OD600 from the final reading, the percentages of microorganism survival relative to vehicle control wells were calculated. […]

[2] = system: Staphylococcus warneri (ATCC 17917); assay: Antimicrobial assay, S. warneri (OD600); conditions: for IC50 / MIC90: Staphylococcus warneri; for IC50: read-out: S. warneri IC50; for MIC90: read-out: S. warneri MIC90
Procedure: as §1, §2

[3] = system: vancomycin-resistant Enterococcus faecium VRE 379; assay: Antimicrobial assay, VRE (PrestoBlue fluorescence); conditions: for VRE MIC90 / VRE IC50 / MIC90 / IC50: 22 h, 37 °C, Inactive = inhibition above 300 μM; for VRE IC50 / IC50: average ± SD
Procedure: as §1, §2

[4] = system: green monkey kidney cells Vero (ATCC CCL-81); assay: Cytotoxicity assay (Alamar blue), Vero; conditions: for IC50 Vero (normal cell line) / IC50: 24 h incubation, average ± SD, Inactive = inhibition above 300 μM; for IC50: Chlorocebus sabaeus, Vero, read-out: IC50 Vero (normal cell line)
Procedure: (§3) The cells (human foreskin BJ fibroblast cells (ATCC CRL-2522), green monkey kidney cells Vero (ATCC CCL-81), human breast adenocarcinoma cells (ATCC HTB-26 MDA-MB 231), human breast adenocarcinoma cells (MCF7 ATCC HTB-22), and human colorectal carcinoma cells (HCT116 ATCC CCL-247)) were grown to 80% confluency, the cells were counted, diluted, and plated into treated 96-well cell culture plates. The BJ fibroblast and Vero cells were plated at a cell density of 10 000 cells per well and the HTB26, HCT116 and MCF7 cells were plated at cell density of 5000 cells per well in 90 μL of respective growth medium (without the addition of antibiotics) and incubated for 24 h to allow cells to adhere to the plates before treatment. Pure compounds were tested in triplicate in serial dilutions of seven concentrations ranging from 2 to 128 μg mL^−1 per well (final well volume of 100 μL, 1% DMSO per well). Each of the cell lines were incubated at 37 °C in a humidified atmosphere of 5% CO2; the BJ fibroblast and Vero cells for 24 h and the HTB-26, HCT116 and MCF7 cells for 72 h. Each plate contained four uninoculated positive controls, four untreated negative controls, and one column containing a concentration range for doxorubicin. Alamar blue was added, 24 h after the treatment, and fluorescence was monitored using a Cytation Gen 5 plate reader using 560 nm Ex/590 Em both at time zero and 4 h after Alamar blue addition. The inferred percentage of cell viability relative to vehicle control wells were calculated after subtracting the time zero emission 590 nm measurement from the final reading and the IC50 was determined. […]
(§4) Cytotoxicity Assay Data Alamar blue was added, 24 h after the treatment, and fluorescence was monitored using a Cytation Gen 5 plate reader using 560 nm Ex/590 Em both at time zero and 4 h after Alamar blue addition. The inferred percentage of cell viability relative to vehicle control wells were calculated after subtracting the time zero emission 590 nm measurement from the final reading and the IC50 was determined.

[5] = system: human foreskin BJ fibroblast cells (ATCC CRL-2522); assay: Cytotoxicity assay (Alamar blue), BJ; conditions: for IC50 BJ (normal cell line) / IC50: 24 h incubation, average ± SD, Inactive = inhibition above 300 μM; for IC50: Homo sapiens, Fibroblast, read-out: IC50 BJ (normal cell line)
Procedure: as §3, §4

[6] = system: human colorectal carcinoma cells (HCT116 ATCC CCL-247); assay: Cytotoxicity assay (Alamar blue), HCT116; conditions: for IC50: Homo sapiens, HCT-116, 72 h incubation, average ± SD, Inactive = inhibition above 300 μM, read-out: IC50 HCT (cancer cell line)
Procedure: as §3, §4

[7] = system: human breast adenocarcinoma cells (ATCC HTB-26 MDA-MB 231); assay: Cytotoxicity assay (Alamar blue), HTB-26; conditions: for IC50: Homo sapiens, HTB26, 72 h incubation, average ± SD, Inactive = inhibition above 300 μM, read-out: IC50 HTB (cancer cell line)
Procedure: as §3, §4

[8] = system: human breast adenocarcinoma cells (MCF7 ATCC HTB-22); assay: Cytotoxicity assay (Alamar blue), MCF7; conditions: for IC50: Homo sapiens, MCF7, 72 h incubation, average ± SD, Inactive = inhibition above 300 μM, read-out: IC50 MCF7 (cancer cell line)
Procedure: as §3, §4

[9] = 37 °C, concentration for 90% growth inhibition, Inactive = inhibition above 300 μM
[10] = 37 °C, average ± SD, Inactive = inhibition above 300 μM
[11] = ATCC17917, 22 h, 37 °C, Inactive = inhibition above 300 μM
[12] = ATCC17917, 22 h, 37 °C, average ± SD, Inactive = inhibition above 300 μM

| IC50 [1, 10] | VRE MIC90 [3] | VRE IC50 [3] | MIC90 [2, 11] | IC50 [2, 12] | MIC90 [3] | IC50 [3] | MIC90 [1, 9] | SMILES | MRSA MIC90 [1, 9] | antimicrobial activity against MRSA (in words) [1] | antimicrobial activity against S. warneri (in words) [2] | IC50 Vero (normal cell line) [4] | IC50 BJ (normal cell line) [5] | cytotoxic activity against HCT116 (in words) [6] | IC50 [6] | cytotoxic activity against HTB-26 MDA-MB 231 (in words) [7] | IC50 [7] | cytotoxic activity against MCF7 (in words) [8] | IC50 [8] | IC50 [4] | other results |
| --- | --- | --- | --- | --- | --- | --- | --- | --- | --- | --- | --- | --- | --- | --- | --- | --- | --- | --- | --- | --- | --- |
| 121 ± 2 µM | Inactive | Inactive | 282 µM (≈ 128 µg/mL) | 135 ± 15.4 µM |  |  |  | COc1ccc(CN(C(=O)CCCCB2OC(C)(C)C(C)(C)O2)c2ccccc2)cc1OC [Compound 31, N-(3,4-dimethoxybenzyl)-N-phenyl-5-(4,4,5,5-tetramethyl-1,3,2-dioxaborolan-2-yl)pentanamide] | Inactive | low activity | low activity | Inactive | Inactive | selective but low to moderate activity | 126 ± 16.5 µM | selective but low to moderate activity | 58 ± 3.5 µM | selective but low to moderate activity | 108 ± 30.9 µM |  |  |
| 70.6 ± 6.6 µM |  |  | 137 µM (≈ 64 µg/mL) | 78.3 ± 39.8 µM | 274 µM (≈ 128 µg/mL) | 91.6 ± 6.8 µM | 137 µM (≈ 64 µg/mL) | CCCCCC(=O)N(Cc1ccc(OC)c(OC)c1)c1cccc(B2OC(C)(C)C(C)(C)O2)c1 [Compound 25, N-(3,4-dimethoxyphenylmethyl)-N-[3-(4,4,5,5-tetramethyl-1,3,2-dioxaborolan-2-yl)phenyl]-hexanamide] |  | moderate activity | moderate activity | Inactive | Inactive | selective but low to moderate activity | 137 ± 12 µM | selective but low to moderate activity | 76.1 ± 3.4 µM | selective but low to moderate activity | 118 ± 19.5 µM |  | antimicrobial activity against VRE (in words) [3]: moderate activity |

Second part, the compound before the results:

| SMILES | IC50 [1, 10] | VRE MIC90 [3] | VRE IC50 [3] | MIC90 [2, 11] | IC50 [2, 12] | MIC90 [3] | IC50 [3] | MIC90 [1, 9] | MRSA MIC90 [1, 9] | antimicrobial activity against MRSA (in words) [1] | antimicrobial activity against S. warneri (in words) [2] | IC50 Vero (normal cell line) [4] | IC50 BJ (normal cell line) [5] | cytotoxic activity against HCT116 (in words) [6] | IC50 [6] | cytotoxic activity against HTB-26 MDA-MB 231 (in words) [7] | IC50 [7] | cytotoxic activity against MCF7 (in words) [8] | IC50 [8] | IC50 [4] | other results |
| --- | --- | --- | --- | --- | --- | --- | --- | --- | --- | --- | --- | --- | --- | --- | --- | --- | --- | --- | --- | --- | --- |
| CN[C@H](CC(C)C)C(=O)N[C@H]1C(=O)N[C@@H](CC(N)=O)C(=O)N[C@H]2C(=O)N[C@H]3C(=O)N[C@H](C(=O)N[C@H](C(=O)O)c4cc(O)cc(O)c4-c4cc3ccc4O)[C@H](O)c3ccc(c(Cl)c3)Oc3cc2cc(c3O[C@@H]2O[C@H](CO)[C@@H](O)[C@H](O)[C@H]2O[C@H]2C[C@](C)(N)[C@H](O)[C@H](C)O2)Oc2ccc(cc2Cl)[C@H]1O [Vancomycin, reference compound] |  |  |  |  |  |  |  |  | 1.4^a μM |  |  |  |  |  |  |  |  |  |  |  | IC50 [1]: 0.5 ± 0.1 µM; MIC90 [1]: 1.4 µM (≈ 2.03 µg/mL); IC50 ([2]; ATCC17917, 22 h): 0.3 ± 0.1 µM; MIC90 ([2]; ATCC17917, 22 h): 0.3 µM (≈ 0.435 µg/mL) |
| CO[C@H]1/C=C/O[C@@]2(C)Oc3c(C)c(O)c4c(O)c(c(/C=N/N5CCN(C)CC5)c(O)c4c3C2=O)NC(=O)/C(C)=C\C=C\[C@H](C)[C@H](O)[C@@H](C)[C@@H](O)[C@@H](C)[C@H](OC(C)=O)[C@@H]1C [Rifampicin, reference compound] |  |  |  |  |  | 2.4 µM (≈ 1.98 µg/mL) | 1.2 ± 0.1 µM |  |  |  |  |  |  |  |  |  |  |  |  |  |  |
| CCCCCCCCCC(=O)N(Cc1ccc(OC)c(OC)c1)c1cccc(B2OC(C)(C)C(C)(C)O2)c1 [Compound 26, N-(3,4-dimethoxyphenylmethyl)-N-[3-(4,4,5,5-tetramethyl-1,3,2-dioxaborolan-2-yl)phenyl]-decanamide] | 13.2 µM | Inactive | Inactive |  |  |  |  | 15.3 µM (≈ 8.01 µg/mL) |  | selectively active |  |  |  | unselective cytotoxic effects | 44.3 ± 10.5 µM | unselective cytotoxic effects | 31.5 ± 2.7 µM | unselective cytotoxic effects | 35.7 ± 16.2 µM | 47.2 ± 6.7 µM | S. warneri MIC90 ([2]; 22 h, 37 °C, Inactive = inhibition above 300 μM): Inactive; S. warneri IC50 ([2]; 22 h, 37 °C, average ± SD, Inactive = inhibition above 300 μM): Inactive; cytotoxic activity against Vero (in words) [4]: unselective cytotoxic effects; cytotoxic activity against BJ (in words) [5]: unselective cytotoxic effects; IC50 [5]: 38.6 ± 1 µM |
| COc1cccc2c1C(=O)c1c(O)c3c(c(O)c1C2=O)C[C@@](O)(C(=O)CO)C[C@@H]3O[C@H]1C[C@H](N)[C@H](O)[C@H](C)O1 [Doxorubicin, reference compound] |  |  |  |  |  |  |  |  |  |  |  |  |  |  | < 0.00012 µM |  | 0.4 ± 0.2 µM |  | 0.2 ± 0.2 µM | > 14.7 µM | IC50 [5]: > 14.7 µM |
